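Each compound was tested at five concentrations against cells in 96-well plates for 48 hours. GI50 is the concentration that inhibits growth by half. TGI denotes the concentration required for complete inhibition of growth.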
Columns and labels:
Experiment in all cases: NCI-60 cell line screen, 48 h
SF-295 CNS = tested on: SF-295 CNS
U251 CNS = tested on: U251 CNS
HT29 colon = tested on: HT29 colon
IGROV1 ovarian = tested on: IGROV1 ovarian
HCT-15 colon = tested on: HCT-15 colon
SK-MEL-5 melanoma = tested on: SK-MEL-5 melanoma
EKVX NSCLC = tested on: EKVX NSCLC
A549 NSCLC = tested on: A549 NSCLC
M14 melanoma = tested on: M14 melanoma
HCC-2998 colon = tested on: HCC-2998 colon
HL-60(TB) leukemia = tested on: HL-60(TB) leukemia
A498 renal = tested on: A498 renal
NCI/ADR-RES ovarian = tested on: NCI/ADR-RES ovarian
HOP-62 NSCLC = tested on: HOP-62 NSCLC
CCRF-CEM leukemia = tested on: CCRF-CEM leukemia
HCT-116 colon = tested on: HCT-116 colon
DU-145 prostate = tested on: DU-145 prostate
SK-MEL-28 melanoma = tested on: SK-MEL-28 melanoma
SF-268 CNS = tested on: SF-268 CNS
TK-10 renal = tested on: TK-10 renal
MCF7 breast = tested on: MCF7 breast
SW-620 colon = tested on: SW-620 colon
PC-3 prostate = tested on: PC-3 prostate
MDA-MB-231 breast = tested on: MDA-MB-231 breast
K-562 leukemia = tested on: K-562 leukemia
MDA-MB-435 = tested on: MDA-MB-435
HOP-92 NSCLC = tested on: HOP-92 NSCLC
NCI-H23 lung = tested on: NCI-H23 lung
UACC-62 melanoma = tested on: UACC-62 melanoma
SNB-19 CNS = tested on: SNB-19 CNS
NCI-H460 lung = tested on: NCI-H460 lung
SNB-75 CNS = tested on: SNB-75 CNS
ACHN renal = tested on: ACHN renal
RPMI-8226 leukemia = tested on: RPMI-8226 leukemia
T-47D breast = tested on: T-47D breast
MOLT-4 leukemia = tested on: MOLT-4 leukemia
SF-539 CNS = tested on: SF-539 CNS
OVCAR-4 ovarian = tested on: OVCAR-4 ovarian
SK-OV-3 ovarian = tested on: SK-OV-3 ovarian
HS 578T breast = tested on: HS 578T breast
OVCAR-5 ovarian = tested on: OVCAR-5 ovarian
COLO 205 colon = tested on: COLO 205 colon
BT-549 breast = tested on: BT-549 breast
CAKI-1 renal = tested on: CAKI-1 renal
RXF 393 renal = tested on: RXF 393 renal
OVCAR-3 ovarian = tested on: OVCAR-3 ovarian
SR leukemia = tested on: SR leukemia
SK-MEL-2 melanoma = tested on: SK-MEL-2 melanoma
SN12C renal = tested on: SN12C renal
786-0 renal = tested on: 786-0 renal
NCI-H226 lung = tested on: NCI-H226 lung
LOX IMVI melanoma = tested on: LOX IMVI melanoma
MALME-3M melanoma = tested on: MALME-3M melanoma
OVCAR-8 ovarian = tested on: OVCAR-8 ovarian
KM12 colon = tested on: KM12 colon
UACC-257 melanoma = tested on: UACC-257 melanoma
UO-31 renal = tested on: UO-31 renal

CC(C)(C)c1ccc(C(=O)Nc2sc3c(c2C(N)=O)CC/C(=N\O)C3)cc1
GI50 (SF-295 CNS): 3.96 µM | TGI (SF-295 CNS): 14.8 µM | GI50 (U251 CNS): 3.66 µM | TGI (U251 CNS): 28.2 µM | GI50 (HT29 colon): 2.68 µM | TGI (HT29 colon): 19.9 µM | GI50 (IGROV1 ovarian): 3.55 µM | TGI (IGROV1 ovarian): 32 µM | GI50 (HCT-15 colon): 1.48 µM | TGI (HCT-15 colon): 14.5 µM | GI50 (SK-MEL-5 melanoma): 2 µM | TGI (SK-MEL-5 melanoma): 4.21 µM | GI50 (EKVX NSCLC): 3.77 µM | TGI (EKVX NSCLC): 19.2 µM | GI50 (A549 NSCLC): 3.44 µM | TGI (A549 NSCLC): 56.6 µM | GI50 (M14 melanoma): 2.83 µM | TGI (M14 melanoma): 14.2 µM | GI50 (HCC-2998 colon): 4.79 µM | TGI (HCC-2998 colon): 22.3 µM | GI50 (HL-60(TB) leukemia): 0.675 µM | TGI (HL-60(TB) leukemia): 5.64 µM | GI50 (A498 renal): 2.09 µM | TGI (A498 renal): 8.85 µM | GI50 (NCI/ADR-RES ovarian): 2.87 µM | TGI (NCI/ADR-RES ovarian): 18.6 µM | GI50 (HOP-62 NSCLC): 4.91 µM | TGI (HOP-62 NSCLC): 20.8 µM | GI50 (CCRF-CEM leukemia): 0.505 µM | TGI (CCRF-CEM leukemia): 9.71 µM | GI50 (HCT-116 colon): 1.5 µM | TGI (HCT-116 colon): 12.6 µM | GI50 (DU-145 prostate): 4.21 µM | TGI (DU-145 prostate): 16.7 µM | GI50 (SK-MEL-28 melanoma): 3.47 µM | TGI (SK-MEL-28 melanoma): 12.4 µM | GI50 (SF-268 CNS): 5.38 µM | TGI (SF-268 CNS): 24.7 µM | GI50 (TK-10 renal): 5.81 µM | TGI (TK-10 renal): 53.9 µM | GI50 (MCF7 breast): 2.68 µM | TGI (MCF7 breast): 43.1 µM | GI50 (SW-620 colon): 1.93 µM | TGI (SW-620 colon): 17.4 µM | GI50 (PC-3 prostate): 1.31 µM | TGI (PC-3 prostate): 18.6 µM | GI50 (MDA-MB-231 breast): 3.04 µM | TGI (MDA-MB-231 breast): 9.11 µM | GI50 (K-562 leukemia): 0.597 µM | TGI (K-562 leukemia): 5.82 µM | GI50 (MDA-MB-435): 3.01 µM | TGI (MDA-MB-435): 10.2 µM | GI50 (HOP-92 NSCLC): 2.43 µM | TGI (HOP-92 NSCLC): 6.86 µM | GI50 (NCI-H23 lung): 2.51 µM | TGI (NCI-H23 lung): 13.4 µM | GI50 (UACC-62 melanoma): 1.95 µM | TGI (UACC-62 melanoma): 8.99 µM | GI50 (SNB-19 CNS): 4.18 µM | TGI (SNB-19 CNS): 18.4 µM | GI50 (NCI-H460 lung): 3.06 µM | TGI (NCI-H460 lung): 10.1 µM | GI50 (SNB-75 CNS): 3.65 µM | TGI (SNB-75 CNS): 14.9 µM | GI50 (ACHN renal): 1.55 µM | TGI (ACHN renal): 9.21 µM | GI50 (RPMI-8226 leukemia): 1.04 µM | TGI (RPMI-8226 leukemia): 4.92 µM | GI50 (T-47D breast): 0.739 µM | TGI (T-47D breast): 8.06 µM | GI50 (MOLT-4 leukemia): 2.09 µM | TGI (MOLT-4 leukemia): 10.6 µM | GI50 (SF-539 CNS): 2.39 µM | TGI (SF-539 CNS): 6.39 µM | GI50 (OVCAR-4 ovarian): 1.12 µM | TGI (OVCAR-4 ovarian): 14.2 µM | GI50 (SK-OV-3 ovarian): 3.53 µM | TGI (SK-OV-3 ovarian): 19.2 µM | GI50 (HS 578T breast): 4.66 µM | TGI (HS 578T breast): 58 µM | GI50 (OVCAR-5 ovarian): 3.43 µM | TGI (OVCAR-5 ovarian): 14.3 µM | GI50 (COLO 205 colon): 3.39 µM | TGI (COLO 205 colon): 15.7 µM | GI50 (BT-549 breast): 1.06 µM | TGI (BT-549 breast): 8.1 µM | GI50 (CAKI-1 renal): 0.756 µM | TGI (CAKI-1 renal): 10.6 µM | GI50 (RXF 393 renal): 0.544 µM | TGI (RXF 393 renal): 3.11 µM | GI50 (OVCAR-3 ovarian): 3.18 µM | TGI (OVCAR-3 ovarian): 13.6 µM | GI50 (SR leukemia): 1.36 µM | TGI (SR leukemia): 6.36 µM | GI50 (SK-MEL-2 melanoma): 2.69 µM | TGI (SK-MEL-2 melanoma): 7.01 µM | GI50 (SN12C renal): 3.2 µM | TGI (SN12C renal): 12.2 µM | GI50 (786-0 renal): 3.81 µM | TGI (786-0 renal): 23 µM | GI50 (NCI-H226 lung): 2.36 µM | TGI (NCI-H226 lung): 9.9 µM | GI50 (LOX IMVI melanoma): 1.61 µM | TGI (LOX IMVI melanoma): 4.35 µM | GI50 (MALME-3M melanoma): 2.36 µM | TGI (MALME-3M melanoma): 6.53 µM | GI50 (OVCAR-8 ovarian): 3.88 µM | TGI (OVCAR-8 ovarian): 20.2 µM | GI50 (KM12 colon): 2.85 µM | TGI (KM12 colon): 13.5 µM | GI50 (UACC-257 melanoma): 3.27 µM | TGI (UACC-257 melanoma): 11.7 µM

NC(N)=Nc1ccc(Oc2ccc(Nc3ccc(Cl)c(C(F)(F)F)c3)cc2)cc1
GI50 (HT29 colon): 1.6 µM | TGI (HT29 colon): 3.09 µM | GI50 (HCT-15 colon): 1.94 µM | TGI (HCT-15 colon): 4.23 µM | GI50 (EKVX NSCLC): 1.76 µM | TGI (EKVX NSCLC): 3.56 µM | GI50 (M14 melanoma): 1.65 µM | TGI (M14 melanoma): 3.22 µM | GI50 (A498 renal): 1.28 µM | TGI (A498 renal): 2.55 µM | GI50 (NCI/ADR-RES ovarian): 10.4 µM | TGI (NCI/ADR-RES ovarian): 27.7 µM | GI50 (CCRF-CEM leukemia): 2.21 µM | TGI (CCRF-CEM leukemia): 6.91 µM | GI50 (DU-145 prostate): 1.74 µM | TGI (DU-145 prostate): 3.16 µM | GI50 (SK-MEL-28 melanoma): 1.64 µM | TGI (SK-MEL-28 melanoma): 3.05 µM | GI50 (SF-268 CNS): 1.62 µM | TGI (SF-268 CNS): 3.39 µM | GI50 (UO-31 renal): 1.84 µM | TGI (UO-31 renal): 4.51 µM | GI50 (TK-10 renal): 1.82 µM | TGI (TK-10 renal): 3.42 µM | GI50 (SW-620 colon): 1.7 µM | TGI (SW-620 colon): 3.25 µM | GI50 (PC-3 prostate): 1.51 µM | TGI (PC-3 prostate): 3.01 µM | GI50 (MDA-MB-435): 1.59 µM | TGI (MDA-MB-435): 3.02 µM | GI50 (HOP-92 NSCLC): 1.38 µM | TGI (HOP-92 NSCLC): 2.8 µM | GI50 (NCI-H23 lung): 1.64 µM | TGI (NCI-H23 lung): 3.15 µM | GI50 (UACC-62 melanoma): 1.7 µM | TGI (UACC-62 melanoma): 3.27 µM | GI50 (NCI-H460 lung): 1.78 µM | TGI (NCI-H460 lung): 3.32 µM | GI50 (SNB-75 CNS): 1.26 µM | TGI (SNB-75 CNS): 2.61 µM | GI50 (ACHN renal): 1.8 µM | TGI (ACHN renal): 3.24 µM | GI50 (RPMI-8226 leukemia): 2.46 µM | TGI (RPMI-8226 leukemia): 6.97 µM | GI50 (MOLT-4 leukemia): 1.83 µM | TGI (MOLT-4 leukemia): 4.62 µM | GI50 (SF-539 CNS): 1.69 µM | TGI (SF-539 CNS): 3.19 µM | GI50 (OVCAR-4 ovarian): 1.73 µM | TGI (OVCAR-4 ovarian): 3.27 µM | GI50 (SK-OV-3 ovarian): 2.18 µM | TGI (SK-OV-3 ovarian): 5.07 µM | GI50 (HS 578T breast): 1.9 µM | TGI (HS 578T breast): 4.64 µM | GI50 (OVCAR-5 ovarian): 1.71 µM | TGI (OVCAR-5 ovarian): 3.15 µM | GI50 (COLO 205 colon): 1.73 µM | TGI (COLO 205 colon): 3.48 µM | GI50 (RXF 393 renal): 1.58 µM | TGI (RXF 393 renal): 3.04 µM | GI50 (SK-MEL-2 melanoma): 1.76 µM | TGI (SK-MEL-2 melanoma): 3.2 µM | GI50 (SN12C renal): 1.66 µM | TGI (SN12C renal): 3.19 µM | GI50 (786-0 renal): 1.74 µM | TGI (786-0 renal): 3.29 µM | GI50 (MALME-3M melanoma): 1.79 µM | TGI (MALME-3M melanoma): 3.99 µM | GI50 (KM12 colon): 1.65 µM | TGI (KM12 colon): 3.11 µM | GI50 (UACC-257 melanoma): 1.64 µM | TGI (UACC-257 melanoma): 3.26 µM
